Experimental findings from patent US20120288482A1, “THERAPEUTIC AGENT (Y-39983) FOR CORNEAL ENDOTHELIAL DYSFUNCTION” (priority 2009, published 2012) are described below.

Structures are written as SMILES.

For test [1], the system named is corneal endothelial wound. As to the kind of experiment: Rabbit corneal endothelial wound model, topical instillation (Example 1). It is filed as in vivo. The settings on record: for area of the unrepaired wound site (corneal endothelium wound area): 6 times a day, 46 hours after wound creation. How it is done:
In this Example, 0.95 mM (0.03 w/v%) compound (I) instillation and 0.32 mM (0.01 w/v%) compound (I) instillation obtained by diluting the above instillation with the above-mentioned vehicle were used.
As a positive control substances, Y-27632 dihydrochloride (Wako Pure Chemical Industries, Co., Ltd., Cat. #253-00513) and fasudil hydrochloride hydrate injection (Eril (registered trade mark) drip intravenous injection, Asahi Kasei Pharma) were purchased, and Y-27632 and Fasudil were each adjusted to 10 mM with phosphate-buffered saline (PBS, Invitrogen, Cat. #14190). In addition, PBS was used as a negative control substance.
Male Japanese white rabbits (body weight 2.5-3.0 kg, 21 rabbits) were purchased from Biotek Co., Ltd. and used. They are kept in individual cages at 23±3° C. temperature, at 55±10% humidity and 12 hours artificial light cycle (lighting on; 8:00 a.m., lighting off; 8:00 p.m.). One hundred grams of solid food (Labo R stock; Nosan Corp.) are provided daily to each animal. Water is supplied by automatic watering apparatus.
3. Excision of Nictitating Membrane of Animal Before starting the test, the nictitating membrane of both eyes of the animal was excised. To be specific, each animal was set in a positioner, and the ocular surface was topically anesthetized by instillation of a topical anesthesia (Benoxil instillation 0.4%, Santen Pharmaceutical Co., Ltd.). Then, the root position of the nictitating membrane was pressed with a clamp for 30 sec, and compressing mark was cut with scissors. After excision of the nictitating membrane, the antibiotic ointment (tarivid eye ointment, Santen Pharmaceutical Co., Ltd.) was instilled to prevent infection. After 4 days from the excision of the nictitating membrane, animals confirmed to have no abnormality in the external eye including the excised site were used.
The corneal thickness of the right eye of each animal was measured with an ultrasonic pachymeter (manufactured by DGH Technologies Inc., DGH-500), and the animals were divided into 4 groups such that the corneal thickness of each group was equal. The animals used for each group were as follows. • 10 mM Y-27632 group=5 eyes • 0.32 mM compound (I) group=5 eyes • 0.95 mM compound (I) group=6 eyes • 10 mM Fasudil group=5 eyes • PBS group=21 eyes (left eye)
The animals were sytemically anesthetized by intramuscular administration of Ketalar muscular injection ([…], DAIICHI SANKYO COMPANY, LIMITED., 0.6 ml) and Celactal 2% Injection (Bayer, Ltd., 0.25 ml). Then, Benoxil instillation 0.4% (Santen Pharmaceutical Co., Ltd., one drop) was instilled and the eye was opened using a lid speculum.
A 7-mm diameter stainless dowel that had been cooled in liquid nitrogen was placed on the central cornea of both eyes of 21 animals for 15 sec. to produce an ice ball in the anterior chamber and dissociate corneal endothelial cells, whereby a corneal endothelial wound was produced.
For topical instillation, after wound creation, compound (I) instillation, Y-27632 instillation or Fasudil instillation was instilled to the right eye, and PBS was instilled to the left eye 6 times a day (4 times on the day of wound production) at 50 μL per instillation. Administration interval in one day was 2 hours. […]

In test [2] the test system is rabbit corneal endothelial cells. As to the kind of experiment: In vitro wound healing model of rabbit corneal endothelial cells (Example 9). It is filed as cell-based. How it is done: In this Example, test substances and control substance prepared in the same manner as in Example 4 were used. Corneoscleral tissue was collected from 10 rabbit eyeballs purchased from Funakoshi Corporation. The corneoscleral tissue was immersed in DMEM (Invitrogen, Cat. #12320-032) containing 1% penicillin/streptomycin (Invitrogen, Cat. #15140-122), and incubated at 37° C. for 1 hour. The Descemet's membrane was stripped together with intact corneal endothelial cells, immersed in a culture medium (DMEM, 10% FBS, 2 ng/mL bFGF (Invitrogen, Cat. #13256-029), 1% penicillin/streptomycin) containing 2 mg/mL Collagenase A (Roche, Cat. #1088793), and incubated at 37° C. for 2 hours. The cells were collected by centrifugation, washed with the culture medium, and seeded in a T25 flask (Corning Incorporated, Cat. #430639) coated with FNC coating mix (Athena ES, Cat. #0407). The flask were left standing in a 5% CO2 incubator at 37° C., the medium was exchanged every 2-3 days, and the cells were cultured to confluent. The cells that reached confluent were collected, seeded in two 6 well plates (Falcon, Cat. #3046) coated with FNC coating mix, and cultured to confluent. The prepared rabbit corneal endothelial cells were collected, seeded in a 6 well plate at a division ratio of 1:4, and cultured to confluent in the same culture medium as in the above-mentioned (1). Linear wound was created in the confluent cells using 1000 μL chip (6 wounds per well). After creating the linear wounds, the culture medium was exchanged, and 0.95 μM, 1.58 μM and 3.16 μM compound (I), 10 μM Y-27632 and 0.04% DMSO were added. Compound (I) and Y-27632 were dissolved in DMSO in advance, where the DMSO concentration was adjusted to 0.04% for both. The width of the wound at 0, 6, 12 and 24 hours after the addition was photographed over time. The wound width was measured by Image-Pro plus (Media Cybernetics, Inc.). The ratio of wound width at each hour was calculated by taking that at 0 hour after the addition of medicament as 100%, and the time-course changes of the ratio of wound width were evaluated. The ratio of wound width was applied to statistical analysis according to the Dunnett's test at each time point.

For the compound `C[C@@H](N)[C@H]1CC[C@H](C(=O)Nc2ccncc2)CC1` [Y-27632, reference compound], the “area of the unrepaired wound site (corneal endothelium wound area)” value in test [1] (10 mM instillation) worked out at 1.1 mm^2. Also, the “ratio of wound width versus control” value in test [2] (10 μM, 24 hours after addition) was “showed a difference from the control for the first time”.

`C[C@@H](N)c1ccc(C(=O)Nc2ccnc3[nH]ccc23)cc1.Cl` [compound (I), (R)-(+)-N-(1H-pyrrolo[2,3-b]pyridin-4-yl)-4-(1-aminoethyl)benzamide monohydrochloride]: the results for the “area of the unrepaired wound site (corneal endothelium wound area)” value in test [1] (0.32 mM instillation) and in test [1] (0.95 mM instillation) were 1.1 mm^2 and 0.4 mm^2, respectively. The “wound area compared to the PBS instillation group” value in test [1] (0.95 mM instillation, Dunnett's test) is listed as “statistically significant decrease in the wound area”. In addition, in test [2], the “concentration showing the highest effect in the in vitro wound healing model” value is on record as “about 0.95 μM”. Besides, the “ratio of wound width versus control” value is given as “statistically significant difference from the control” in test [2] (0.95 μM, 6 hours after addition, Dunnett's test) and “statistically significant difference even 24 hours later” in test [2] (compound (I), 24 hours after addition, Dunnett's test). Moreover, in test [2] (1.58 μM), the wound healing effect result is “significant effect, the effect was weaker than that of the 0.95 μM compound (I)”. Moreover, the “concentration showing a wound healing promoting effect” value in test [2] (in vitro wound healing model, Example 9) was 0.95 to 1.58 µM.
